Columns and labels:
[1] = system: Phosphorylation of ERK1/2 in A-427 cells; assay: Phospho-ERK1/2 MSD Assay (A-427 cells); format: cell-based; settings: Homo sapiens, A-427, 2 h, 2 h treatment, read-out: p-ERK (A427 cells) IC50
How it was run: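 ERK1/2 phosphorylation measured by Meso Scale whole-cell lysate assay after A-427 cells were exposed to a titration of compound for 2 h at 37 °C.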

[2] = target: His-tagged KRAS G12D protein (Homo sapiens, UniProt P01116, G12D); assay: KRAS G12D TR-FRET Assay; format: binding
[3] = target: GDP-bound KRAS protein (aa 1-169), containing both G12D and C118A amino acid substitutions (Homo sapiens, UniProt P01116, C118A/G12D); assay: KRAS G12D Coupled Nucleotide Exchange Assay; format: biochemical; settings: 2 h compound pre-incubation
Method: Following compound pre-incubation, purified SOS protein (aa 564-1049) and GTP (Roche 10106399001) were added to the assay wells and incubated for an additional 30 min. […] The assay plates were then read on a PerkinElmer EnVision Multilabel Reader, using AlphaScreen® technology, and data were analyzed using a 4-parameter logistic model to calculate IC50 values.

[4] = system: Phosphorylation of ERK1/2 in AsPC-1 cells; assay: Phospho-ERK1/2 MSD Assay (AsPC-1 cells); format: cell-based; settings: Homo sapiens, ASPC1, 2 h, 2 hours treatment, read-out: p-ERK (AsPC-1 cells) IC50
How it was run: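 Read-out: MSD electrochemiluminescent detection of phosphorylated ERK1/2 in whole-cell lysates, fitted to a 4-parameter logistic curve for IC50. Prior to lysis, AsPC-1 cells (25,000 per well) received a 2 h compound dose-response at 37 °C.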

Chain of His-tagged KRAS G12D protein (P01116 1-188 isoform P01116-2 G12D): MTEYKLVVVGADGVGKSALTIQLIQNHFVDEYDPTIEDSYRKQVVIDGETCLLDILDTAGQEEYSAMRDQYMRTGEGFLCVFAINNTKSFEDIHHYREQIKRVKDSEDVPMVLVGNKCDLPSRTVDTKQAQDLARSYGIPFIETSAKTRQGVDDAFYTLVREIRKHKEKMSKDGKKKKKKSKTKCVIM
Chain of GDP-bound KRAS protein (aa 1-169), containing both G12D and C118A amino acid substitutions (P01116 1-169 isoform P01116-2 G12D/C118A): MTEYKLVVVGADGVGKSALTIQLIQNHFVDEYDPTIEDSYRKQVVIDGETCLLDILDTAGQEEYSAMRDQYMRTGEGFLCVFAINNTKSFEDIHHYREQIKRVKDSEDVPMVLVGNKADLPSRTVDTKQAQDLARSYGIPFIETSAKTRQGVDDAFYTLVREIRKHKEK

C#Cc1cccc2cc(O)cc(-c3cc4nc(OC[C@@]56CCCN5C[C@H](F)C6)nc(N5C[C@H]6CC[C@@H](C5)N6)c4cc3F)c12 [Example 182, 4-(4-((1R,5S)-3,8-diazabicyclo[3.2.1]octan-3-yl)-6-fluoro-2-(((2R,7aS)-2-fluorotetrahydro-1H-pyrrolizin-7a(5H)-yl)methoxy)quinazolin-7-yl)-5-ethynylnaphthalen-2-ol]
IC50 [1]: 4 nM | IC50 [2]: 1 nM | Avg 2 h Coupled Exchange IC50 [3]: 2 nM | IC50 [4]: 33 nM

N#Cc1cccc2cc(O)cc(-c3c(F)cc4c(N5C[C@H]6CC[C@@H](C5)N6)nc(OC[C@@]56CCCN5C[C@H](F)C6)nc4c3F)c12 [Example 204, 8-(4-((1R,5S)-3,8-Diazabicyclo[3.2.1]octan-3-yl)-6,8-difluoro-2-(((2R,7aS)-2-fluorotetrahydro-1H-pyrrolizin-7a(5H)-yl)methoxy)quinazolin-7-yl)-6-hydroxy-1-naphthonitrile]
IC50 [1]: 26 nM | IC50 [2]: 2 nM | Avg 2 h Coupled Exchange IC50 [3]: 3 nM | IC50 [4]: 98 nM

CCc1c(F)ccc2cc(O)cc(-c3ccc4c(N5[C@@H]6CC[C@H]5CNC6)nc(OC[C@@]56CCCN5C[C@H](F)C6)nc4c3C)c12 [Example 161, 4-(4-((1R,5S)-3,8-diazabicyclo[3.2.1]octan-8-yl)-2-(((2R,7aS)-2-fluorotetrahydro-1H-pyrrolizin-7a(5H)-yl)methoxy)-8-methylquinazolin-7-yl)-5-ethyl-6-fluoronaphthalen-2-ol]
IC50 [1]: 10000 nM | IC50 [2]: 75 nM | Avg 2 h Coupled Exchange IC50 [3]: 79 nM | IC50 [4]: 9750 nM

C#Cc1c(F)ccc2cc(O)cc(-c3c(F)cc4c(N5C[C@H]6CC[C@@H](C5)N6)nc(OC[C@@]56CCCN5C[C@H](F)C6)nc4c3F)c12 [Example 189, 4-(4-((1R,5S)-3,8-diazabicyclo[3.2.1]octan-3-yl)-6,8-difluoro-2-(((2R,7aS)-2-fluorotetrahydro-1H-pyrrolizin-7a(5H)-yl)methoxy)quinazolin-7-yl)-5-ethynyl-6-fluoronaphthalen-2-ol]
IC50 [1]: 1 nM | IC50 [2]: 4 nM | Avg 2 h Coupled Exchange IC50 [3]: 3 nM | IC50 [4]: 2 nM

CN1C[C@H](F)C[C@H]1COc1nc(N2C[C@H]3C[C@@H](C2)N3)c2cc(F)c(-c3cc(O)cc4ccccc34)c(F)c2n1 [Example 19, 4-(4-((1R,5S)-3,6-diazabicyclo[3.1. 1]heptan-3-yl)-6,8-difluoro-2-(((2S,4R)-4-fluoro-1-methylpyrrolidin-2-yl)methoxy)quinazolin-7-yl)naphthalen-2-ol]
IC50 [1]: 1790 nM | IC50 [2]: 58 nM | Avg 2 h Coupled Exchange IC50 [3]: 28 nM | IC50 [4]: 2090 nM

CCc1c(F)ccc2cc(O)cc(-c3ccc4c(N5C[C@H]6CC[C@@H](C5)N6)nc(OC[C@@]56CCCN5C[C@H](F)C6)nc4c3F)c12 [Example 87, 4-(4-((1R,5S)-3,8-diazabicyclo[3.2. 1]octan-3-yl)-8-fluoro-2-(((2R,7aS)-2-fluorotetrahydro-1H-pyrrolizin-7a(5H)-yl)methoxy)quinazolin-7-yl)-5-ethyl-6-fluoronaphthalen-2-ol]
IC50 [1]: 6 nM | IC50 [2]: 7 nM | Avg 2 h Coupled Exchange IC50 [3]: 10 nM | IC50 [4]: 16 nM

CCc1c(F)ccc2cc(O)cc(-c3c(F)cc4c(N5C[C@H]6CC[C@@H](C5)N6)nc(OCc5nccn5C)nc4c3F)c12 [Example 213, 4-(4-((1R,5S)-3,8-diazabicyclo[3.2.1]octan-3-yl)-6,8-difluoro-2-((1-methyl-1H-imidazol-2-yl)methoxy)quinazolin-7-yl)-5-ethyl-6-fluoronaphthalen-2-ol]
IC50 [1]: 1460 nM | IC50 [2]: 11 nM | Avg 2 h Coupled Exchange IC50 [3]: 6 nM | IC50 [4]: 2300 nM

Oc1cc(-c2c(F)cc3c(N4C[C@@H]5CC[C@H]4CN5)nc(OCC45CCCN4C[C@H](F)C5)nc3c2F)c2c(F)c(F)ccc2c1 (atropisomer, axis not shown; (M)) [Example 233, (M)-4-(4-((1S,4S)-2,5-Diazabicyclo[2.2.2]octan-2-yl)-6,8-difluoro-2-(((2R,7aS)-2-fluorotetrahydro-1H-pyrrolizin-7a(5H)-yl)methoxy)quinazolin-7-yl)-5,6-difluoronaphthalen-2-ol]
IC50 [1]: 5 nM | IC50 [2]: 1 nM | Avg 2 h Coupled Exchange IC50 [3]: 1 nM | IC50 [4]: 27 nM

Oc1cc(-c2c(F)cc3c(N4C[C@H]5CCC[C@@H](C4)N5)nc(OC[C@@]45CCCN4C[C@H](F)C5)nc3c2F)c2ccccc2c1 [Example 120, 4-(4-((1R,5S)-3,9-diazabicyclo[3.3.1]nonan-3-yl)-6,8-difluoro-2-(((2R,7aS)-2-fluorotetrahydro-1H-pyrrolizin-7a(5H)-yl)methoxy)quinazolin-7-yl)naphthalen-2-ol]
IC50 [1]: 1160 nM | IC50 [2]: 8 nM | Avg 2 h Coupled Exchange IC50 [3]: 4 nM | IC50 [4]: 1170 nM

Fc1c(-c2cccc(Cl)c2C(F)(F)F)ccc2c(N3C[C@H]4CC[C@@H](C3)N4)nc(OC[C@@]34CCCN3C[C@H](F)C4)nc12 [Example 156, 4-((1R,5S)-3,8-diazabicyclo[3.2.1]octan-3-yl)-7-(3-chloro-2-(trifluoromethyl)phenyl)-8-fluoro-2-(((2R,7aS)-2-fluorotetrahydro-1H-pyrrolizin-7a(5H)-yl)methoxy) quinazoline]
IC50 [1]: 1180 nM | IC50 [2]: 7 nM | Avg 2 h Coupled Exchange IC50 [3]: 3 nM | IC50 [4]: 881 nM

CCc1c(F)ccc2cc(O)cc(-c3c(O)cc4c(N5C[C@H]6CC[C@@H](C5)N6)nc(OC[C@@]56CCCN5C[C@H](F)C6)nc4c3F)c12 [Example 199, 4-((1R,5S)-3,8-Diazabicyclo[3.2.1]octan-3-yl)-7-(8-ethyl-7-fluoro-3-hydroxynaphthalen-1-yl)-8-fluoro-2-(((2R,7aS)-2-fluorotetrahydro-1H-pyrrolizin-7a(5H)-yl)methoxy)quinazolin-6-ol]
IC50 [1]: 9 nM | IC50 [2]: 3 nM | Avg 2 h Coupled Exchange IC50 [3]: 4 nM | IC50 [4]: 70 nM

C#Cc1c(F)ccc2cc(O)cc(-c3ccc4c(N5[C@@H]6CC[C@H]5CNC6)nc(OC[C@@]56CCCN5C[C@H](F)C6)nc4c3F)c12 [Example 187, 4-(4-((1R,5S)-3,8-diazabicyclo[3.2.1]octan-8-yl)-8-fluoro-2-(((2R,7aS)-2-fluorotetrahydro-1H-pyrrolizin-7a(5H)-yl)methoxy)quinazolin-7-yl)-5-ethynyl-6-fluoronaphthalen-2-ol]
IC50 [1]: 5 nM | IC50 [2]: 2 nM | Avg 2 h Coupled Exchange IC50 [3]: 1 nM | IC50 [4]: 16 nM

N#Cc1cc(O)cc(-c2c(F)cc3c(N4C[C@H]5CC[C@@H](C4)N5)nc(OC[C@@]45CCCN4C[C@H](F)C5)nc3c2F)c1C1CC1 [Example 227, 3-(4-((1R,5S)-3,8-Diazabicyclo[3.2.1]octan-3-yl)-6,8-difluoro-2-(((2R,7aS)-2-fluorotetrahydro-1H-pyrrolizin-7a(5H)-yl)methoxy)quinazolin-7-yl)-2-cyclopropyl-5-hydroxybenzonitrile]
IC50 [1]: 48 nM | IC50 [2]: 3 nM | Avg 2 h Coupled Exchange IC50 [3]: 4 nM | IC50 [4]: 308 nM

Oc1cc(-c2c(F)cc3c(N4C[C@H]5COC[C@@H](C4)N5)nc(OC[C@@]45CCCN4C[C@H](F)C5)nc3c2F)c2ccccc2c1 [Example 15, 4-(4-((1R,5S)-3-oxa-7,9-diazabicyclo[3.3. 1]nonan-7-yl)-6,8-difluoro-2-(((2R,7aS)-2-fluorotetrahydro-1H-pyrrolizin-7a(5H)-yl)methoxy)quinazolin-7-yl)naphthalen-2-ol]
IC50 [1]: 1550 nM | IC50 [2]: 20 nM | Avg 2 h Coupled Exchange IC50 [3]: 14 nM | IC50 [4]: 3220 nM

— US20250059205A1, “Heterocyclic Compounds and Methods of Use” (AMGEN INC., priority 2021, published 2025)
